# Laboratory results from patent publication US20220183282A1, “Fatty Acid Derivatives For Improving The Effect Of Agrochemical Actives” (priority 2019, published 2022).
# Read-outs that look alike come from different tables or passages of the source.
# Key:
# apple leaf cuticles [1] = details: for Mean penetration for Benzyladenine after time: Benzyladenine 0.1 g/L in spray liquid
# Text: (§1) Surfactants can affect the absorption of (active) ingredients through membranes such as skin, films or the plant cuticle. As a “finite-dose” application, it is known for the single administration or application of a solution, cream, gel etc. to a membrane that the absorption of active ingredient can be influenced by some additives such as surfactants even after wetting.
# (§2) The principle of the method has been published and described in detail e.g. in WO-A-2005/194844 or WO2017211572 A1). The leaf cuticles were enzymatically isolated in the manner described in the literature from apple leaves of orchard trees in a commercial stone fruit growing facility near Frankfurt am Main in 2017. The stomata-free cuticles were first dried under air and then installed into stainless steel diffusion cells. After application to the original upper side of the leaf and evaporation of the test liquid, i.e. of the spray liquids of the active ingredients with or without the inventive substances or comparative compositions, the diffusion cells were transferred into thermostated blocks and charged with aqueous liquid. The water used to make up the aqueous test liquids was local tap water (of known composition). At regular intervals, aliquot samples were taken and the proportion of active ingredient penetrated was determined by HPLC or alternatively by radio-chemical method where radio-labelled active ingredient was used as tracer to determine the concentration. During the experiment, the temperature in the system (block, diffusion cells, liquids, etc.) and the air humidity above the spray deposit on the cuticle were controlled. In the experiment, relative air humidity was constant throughout at 56% relative air humidity (air over supersaturated calcium nitrate) at a constant 10° C. or 25° C. The analytical determination by means of HPLC (1290 Infinity, Agilent) was effected thereafter with a Kinetex column 30×2, 1 mm, 2.6μ C18 100 A (Phenomenex), taking a 20 μL aliquot as injection volume at the specified times. In each case, the geometric mean values of the penetration for intact membranes at the mean measurement times are given.
# apple leaf cuticles [2] = experiment: Penetration of MCPA through isolated apple leaf cuticles in the presence of test substances; details: for Mean penetration for MCPA after time: MCPA 1.5 g/L in spray liquid, 25° C./56% rel. air humidity
# Text: as §1, §2
# [3] = Dynamic surface tension, bubble pressure method (BP2100 tensiometer, Krüss); type: physicochemical
# Procedure: Dynamic surface tension was determined via the bubble pressure method (BP2100 tensiometer, Krüss). Given a timespan of relevance for the spray application of agrochemicals in aqueous dilution (called the surface age in the bubble pressure method) of 200 milliseconds (ms), the value for dynamic surface tension in [mN/m] correlates with the adhesion on plants that are difficult to wet, such as barley (cereal). A value of 50 mN/m (at 20-21° C.) with respect to water (72.8 mN/m) results in an improvement in the adhesion from “zero adhesion” (0%) to about 50% (Baur P., Pontzen R.; 2007; Basic features of plant surface wettability and deposit formation and the impact of adjuvant; in R. E. Gaskin ed. Proceedings of the 8th International Symposium on Adjuvants for Agrochemicals; Publisher: International Society for Agrochemical Adjuvants (ISAA), Columbus, Ohio, USA).
# apple leaf cuticles [4] = experiment: Penetration of Milbemectin through isolated apple leaf cuticles in the presence of test substances; type: in vitro ADME; details: for Mean penetration for Milbemectin after time: Milbemectin 0.03 g/L in spray liquid
# Text: as §1, §2
# apple leaf cuticles [5] = experiment: Penetration of Imidacloprid through isolated apple leaf cuticles in the presence of test substances; details: for Mean penetration for Imidacloprid after time: Imidacloprid 0.5 g/L in spray liquid
# Text: as §1, §2
# apple leaf cuticles [6] = experiment: Penetration of lodosulfuron-methyl through isolated apple leaf cuticles in the presence of test substances; type: in vitro ADME; details: for Mean penetration for lodosulfuron-methyl after time: lodosulfuron-methyl 0.1 g/L in spray liquid, 10° C./61% rel. air humidity
# Text: as §1
# as §2, with “In the experiment, relative air humidity was constant throughout at 56% relative air humidity (air over supersaturated calcium nitrate) at a constant 10° C. or 25° C.” left out
# apple leaf cuticles [7] = experiment: Penetration of Mesosulfuron-methyl through isolated apple leaf cuticles in the presence of test substances; type: in vitro ADME; details: for Mean penetration for Mesosulfuron-methyl after time: Mesosulfuron-methyl 0.1 g/L in spray liquid, 10° C./61% rel. air humidity
# Text: as §1
# as §2, with “In the experiment, relative air humidity was constant throughout at 56% relative air humidity (air over supersaturated calcium nitrate) at a constant 10° C. or 25° C.” left out
smiles,measurement,setting,value
"CCCCCCCCC(=O)OCCOCCOCCOCCOCCOCCOC [A1, Pelargonic acid 6 EO ester methyl ether]",Mean penetration for Benzyladenine after time,"apple leaf cuticles [1]; test substance 0.3 g/L, 1 day",4.2%
same,Mean penetration for Benzyladenine after time,"apple leaf cuticles [1]; test substance 0.3 g/L, 2 days",4.5%
same,Mean penetration for Benzyladenine after time,"apple leaf cuticles [1]; test substance 0.8 g/L, 1 day",9.7%
same,Mean penetration for Benzyladenine after time,"apple leaf cuticles [1]; test substance 0.8 g/L, 2 days",10.6%
same,Mean penetration for Benzyladenine after time,"apple leaf cuticles [1]; test substance 1.5 g/L, 1 day",17.2%
same,Mean penetration for Benzyladenine after time,"apple leaf cuticles [1]; test substance 1.5 g/L, 2 days",17.9%
same,Mean penetration for Benzyladenine after time,"apple leaf cuticles [1]; test substance 3.0 g/L, 1 day",17.9%
same,Mean penetration for Benzyladenine after time,"apple leaf cuticles [1]; test substance 3.0 g/L, 2 days",18.6%
same,"uptake of the agrochemical active (Benzyladenine), in words",apple leaf cuticles [1]; summary of Table 10,strongly increases the uptake
same,Mean penetration for MCPA after time,"apple leaf cuticles [2]; test substance 0.3 g/L, 0.5 day",34.2%
same,Mean penetration for MCPA after time,"apple leaf cuticles [2]; test substance 0.3 g/L, 1 day",45.5%
same,Mean penetration for MCPA after time,"apple leaf cuticles [2]; test substance 1.0 g/L, 0.5 day",46.9%
same,Mean penetration for MCPA after time,"apple leaf cuticles [2]; test substance 1.0 g/L, 1 day",53.9%
same,"uptake of the active ingredient (MCPA), in words",apple leaf cuticles [2]; summary of Table 3,strongly increases the uptake
same,Dynamic Surface tension,"[3]; 0.3 g/L, 20 ms",61.2 mN/m
same,Dynamic Surface tension,"[3]; 0.3 g/L, 50 ms",57.3 mN/m
same,Dynamic Surface tension,"[3]; 0.3 g/L, 100 ms",54.4 mN/m
same,Dynamic Surface tension,"[3]; 0.3 g/L, 200 ms",51.5 mN/m
same,Dynamic Surface tension,"[3]; 1 g/L, 20 ms",47.6 mN/m
same,Dynamic Surface tension,"[3]; 1 g/L, 50 ms",44.5 mN/m
same,Dynamic Surface tension,"[3]; 1 g/L, 100 ms",42.1 mN/m
same,Dynamic Surface tension,"[3]; 1 g/L, 200 ms",39.8 mN/m
same,Dynamic Surface tension,"[3]; 3 g/L, 20 ms",33.7 mN/m
same,Dynamic Surface tension,"[3]; 3 g/L, 50 ms",32.0 mN/m
same,Dynamic Surface tension,"[3]; 3 g/L, 100 ms",30.8 mN/m
same,Dynamic Surface tension,"[3]; 3 g/L, 200 ms",29.5 mN/m
same,Dynamic Surface tension,"[3]; 10 g/L, 20 ms",30.2 mN/m
same,Dynamic Surface tension,"[3]; 10 g/L, 50 ms",29.3 mN/m
same,Dynamic Surface tension,"[3]; 10 g/L, 100 ms",28.6 mN/m
same,Dynamic Surface tension,"[3]; 10 g/L, 200 ms",27.9 mN/m
same,Mean penetration for Milbemectin after time,"apple leaf cuticles [4]; test substance 1.5 g/L, 1 day",4.3%
same,Mean penetration for Milbemectin after time,"apple leaf cuticles [4]; test substance 1.5 g/L, 2 days",4.2%
same,Mean penetration for Milbemectin after time,"apple leaf cuticles [4]; test substance 3.0 g/L, 1 day",4.7%
same,Mean penetration for Milbemectin after time,"apple leaf cuticles [4]; test substance 3.0 g/L, 2 days",5.4%
same,"uptake of the agrochemical active (Milbemectin), in words","apple leaf cuticles [4]; summary of Table 9, compared to the commercial formulation",strongly increases the uptake
same,Mean penetration for Imidacloprid after time,"apple leaf cuticles [5]; test substance 0.3 g/L, 1 day",2.8%
same,Mean penetration for Imidacloprid after time,"apple leaf cuticles [5]; test substance 0.3 g/L, 4 days",3.8%
same,Mean penetration for Imidacloprid after time,"apple leaf cuticles [5]; test substance 1.0 g/L, 1 day",31.7%
same,Mean penetration for Imidacloprid after time,"apple leaf cuticles [5]; test substance 1.0 g/L, 4 days",38.2%
same,"uptake of the agrochemical active (Imidacloprid), in words",apple leaf cuticles [5]; summary of Table 8,strongly increases the uptake
same,Mean penetration for lodosulfuron-methyl after time,"apple leaf cuticles [6]; test substance 0.3 g/L, 1 day",1.0%
same,Mean penetration for lodosulfuron-methyl after time,"apple leaf cuticles [6]; test substance 0.3 g/L, 2 days",1.5%
same,Mean penetration for lodosulfuron-methyl after time,"apple leaf cuticles [6]; test substance 1.0 g/L, 1 day",2.3%
same,Mean penetration for lodosulfuron-methyl after time,"apple leaf cuticles [6]; test substance 1.0 g/L, 2 days",3.3%
same,Mean penetration for lodosulfuron-methyl after time,"apple leaf cuticles [6]; test substance 3.0 g/L, 1 day",7.6%
same,Mean penetration for lodosulfuron-methyl after time,"apple leaf cuticles [6]; test substance 3.0 g/L, 2 days",8.8%
same,"uptake of the active ingredient (lodosulfuron-methyl), in words",apple leaf cuticles [6]; summary of Table 6,strongly increases the uptake
same,Mean penetration for Mesosulfuron-methyl after time,"apple leaf cuticles [7]; test substance 1.0 g/L, 1 day",1.9%
same,Mean penetration for Mesosulfuron-methyl after time,"apple leaf cuticles [7]; test substance 1.0 g/L, 2 days",3.6%
same,Mean penetration for Mesosulfuron-methyl after time,"apple leaf cuticles [7]; test substance 3.0 g/L, 1 day",4.2%
same,Mean penetration for Mesosulfuron-methyl after time,"apple leaf cuticles [7]; test substance 3.0 g/L, 2 days",5.2%
same,Mean penetration for Mesosulfuron-methyl after time,"apple leaf cuticles [7]; test substance 10 g/L, 1 day",9.2%
same,Mean penetration for Mesosulfuron-methyl after time,"apple leaf cuticles [7]; test substance 10 g/L, 2 days",10.9%
same,"uptake of the active ingredient (Mesosulfuron-methyl), in words",apple leaf cuticles [7]; summary of Table 5,strongly increases the uptake
